Here are results for twelve molecules from US20050202032A1, “Use of neglected target tissue antigens in modulation of immune responses” (The Regents of the University of California, priority 1998, published 2005).

Test [1] concerns irradiated young NOD mice receiving T cells from diabetic NOD mice. The test can be described thus: Adoptive transfer of IDDM (Example 5). The class given is in vivo. Particulars: cells from treated mice co-transferred with T cells from diabetic NOD mice. Here is the method:
Adoptive transfer of diabetes. At a specified time, NOD mice were injected i.p. with 100 μg GAD65 (or other specified antigen) or control β-galactosidase in 100 μl of 50% IFA and reinjected at 14 weeks of age. Five weeks later, single-cell suspensions of splenic mononuclear cells were prepared from each group, as well as from unmanipulated diabetic NOD mice. Ten million splenic mononuclear cells from the unmanipulated diabetic mice were mixed with an equal number of splenic mononuclear cells from GAD65 β-galactosidase-treated mice and injected intravenously into 5-week-old female NOD mice that had received 500 rad-γ-irradiation. Another control group received […] splenic mononuclear cells obtained only from unmanipulated diabetic mice.
Splenic T cells from NTTA peptide treated mice were co-transferred with T cells from diabetic NOD mice into irradiated young NOD mice. All of the mice which received cells from mice treated with a control immunogenic mouse serum albumin peptide (MSA 560-574) developed IDDM within 5 weeks. […] Thus, NTTAs are capable of inducing adoptively transferable regulatory responses which can down-regulate pathogenic T cells.

In test [2] the test system is splenic T cells of NOD mice. Put plainly: T cell proliferation: immunogenicity and spontaneous recall responses to candidate NTTA peptides (Example 4). In kind it is cell-based. The note with it: peptide used as the immunizant; FIG. 4. Here is the method: T-cell proliferation assays. Female NOD mice were injected i.p. at 8 weeks of age with 100 μg antigen, or control β-galactosidase, in 100 μl of 50% IFA. The mice were reinjected 2 weeks later. At 12 weeks of age, splenic T-cells were tested for proliferative responses to GAD65, hsp277, β-galactosidase and the HEL peptide, as previously described.
Transgenic animal models have shown that neoantigens which are expressed at low levels in peripheral tissues often have little impact on T cell education and elicit strong immune responses after immunization (4-8). Identifying NTTAs that were specifically expressed in the β cells at low levels was therefore preferred. The DNA sequence banks were screened for cDNA sequences isolated from mouse β cell subtraction libraries. Mouse cDNA sequences were selected from both known and unknown β cell cDNAs and from both β-cell specific and ubiquitous antigens, some of which appeared to be expressed only at low levels specifically in β cells. Other cDNAs that were expressed at higher levels in the β cells, or in other tissues were selected by Northern analysis for comparison purposes. From the open reading frames of the candidate cDNAs we synthesized a dozen peptides which contained a consensus NOD class II MHC binding motif (54, 55). We identified 4 peptides (sequences provided above) from 3 different mouse B cell proteins that were immunogenic in NOD mice (FIG. 4).
The remaining peptides tested were peptide 1, a 15mer from calbindin having the sequence EEFMKTWRKYDTDHS; • peptide 3, also a 15mer from calbindin having the sequence LKDLCEKNKQELDIN; • peptide 5, a 15mer from clone 38 in turn derived from a beta cell specific cDNA library (Neophytou, P. et al Diabetes, 45:127, 1996) having the sequence ILKMDHHCPWVNNCV; and • peptide 8 from islet amyloid polypeptide having the sequence GKRNAAGDPNRESLDFL.
In addition, using a set of overlapping GAD peptides, two GAD peptides have been identified which are immunogenic in NOD mice (GADp18 and GADp27; sequences provided under ANTIGENS, above) but which are ignored by their spontaneous autoimmune responses (data not shown). […] These conclusions can be used to advantage for the development of human NTTAs as immunotherapeutics for autoimmune disease, and other abnormal inflammatory immune responses.

For test [3], the system named is splenic T cells of NOD mice. The description is as above. The class given is cell-based. Particulars: at any stage of NOD mouse development, no immunization.
For test [4], the system named is T cell clones from immunized NOD mice. The test can be described thus: Cytokine secretion of NTTA- and GADp35-reactive T cell clones (Example 9). The note with it: ELISPOT and antigen-stimulated culture supernatants. The class given is cell-based. Here is the method: NOD mice were immunized with a NTTA peptide or GADp35 in incomplete Freund's adjuvant (IFA). Two weeks later lymph node and splenic T cells were cultured with antigen, IL-2 and IL-4 together with irradiated NOD splenic cells and T cell clones were generated by limiting dilution. A NTTA 7 and a GADp35-reactive clone were characterized by ELISPOT and analysis of antigen-stimulated culture supernatants. Both clones secreted IL-4, and no IFN-γ in response to the corresponding antigen. Thus, these T cell clones appear to be Th2-type.

Test [5] relates to antigen-specific T cells within islet infiltrates. The test can be described thus: ELISPOT of single antigen-specific T cells from pancreatic islet infiltrates (Example 11). The class given is cell-based, NOD mice. Here is the method:
(§1) ELISPOT analysis. At a specified time, mice received a single i.p. injection of 100 μg β-galactosidase or GAD65 or other specified antigen in 50% IFA. Fourteen days later, splenic T-cells were isolated and the frequency of β-galactosidase and GAD65-specific T-cells secreting IL-4, IL-5 and IFN-γ was determined by using the ELISPOT technique as described (Forsthuber, T., et al., Science, 271:1728, 1996), with the exception that the treating antigen and β-galactosidase (100 μg/ml) were used as antigens, and 11B11 together with biotinylated BVD6-24G2 (PharMingen, San Diego, Calif.) was used for capture and detection of IL-4. The resulting spots were counted manually.
Monocytes were isolated from islets of 10-week old female NOD mice. 1000, 100 or 10 monocytes were mixed with 1 million irradiated splenic T cells and tested for IFNγ and IL-5 responses to B cell autoantigens, as well as control antigens, by ELISPOT.

Test [6] relates to diabetic NOD mice with transplanted syngeneic islets. Put plainly: Transplantation of syngeneic islets into diabetic NOD mice (Example 2). In kind it is in vivo. The note with it: antigen i.p. in IFA to recipient diabetic NOD mice prior to transplantation; FIG. 1. The method, then: Transplantation of islets. Female NOD mice were monitored for the onset of IDDM, after which the mice were maintained on 1.0 to 1.5 units insulin (Humulin U, Lilly) per day. At the time of IDDM onset, mice were injected with either 100 μg of GAD65, hsp277, insulin B-chain or control β-galactosidase i.p. in 50% IFA. Ten days later, the mice were reinjected. Ten days after the second treatment, 3000 freshly isolated islets from newborn NOD mice were transplanted into the space beneath the kidney capsule, and Humulin administration was discontinued. The mice were reinjected every two weeks. Recurrence of diabetes is defined as two consecutive blood glucose levels of greater than 13 mmol/l.
Based on the ability of autoantigen treatment to inhibit disease in pre-diabetic NOD mice with (1) we tested whether this treatment could also protect transplanted syngeneic β cells from the established autoimmune responses in diabetic NOD mice. Islets were transplanted into diabetic NOD mice that had been treated with β-galactosidase. […] The results are shown in FIG. 1, wherein data are presented as time post-transplantation at which hyperglycemia recurred. These findings correlate with the extent to which each autoantigen was able to promote Th2 immunity in newly hyperglycemic animals (see Example 3, below).

The subject of test [7] is splenic T cells of treated NOD mice. The test can be described thus: ELISPOT of Th1/Th2 responses after neonatal autoantigen treatment (Example 8). The class given is cell-based. Particulars: treated neonatally 100 μg i.p. in IFA, tested at 4 weeks in age; FIG. 10. Here is the method: as §1
The data are represented as the mean number of spot forming colonies per million splenic T cells above background. The variation within, each group was <15%. Experimental and control mice were tested simultaneously (in triplicate) in two separate experiments (n=5/group).

The subject of test [8] is NOD mice. The note with it: intraperitoneally in incomplete Freund's adjuvant early in the NOD mouse disease process (ref 1); cited from earlier work.

Consider “MSA 560-574: control immunogenic mouse serum albumin peptide 560-574 (KPKATAEQLKTVMDD)”, for which the “time by which all recipient mice developed IDDM” value in test [1] is given as at most 5 weeks.

For the molecule “PEVKEKGMAAVPRLIAFTSE (homo sapiens) [GADp18]”, the “immunogenicity in NOD mice (proliferative T cell response after immunization)” value (“immunogenicity in NOD mice” for short) in test [2] was “immunogenic”. In addition, the “spontaneous proliferative splenic T cell recall responses” value in test [3] is listed as “ignored”.

As for “ELKNFLKDLLEKANKTVDDT (homo sapiens) [Peptide 2]”, in test [2], the “immunogenicity in NOD mice” value is “immunogenic”. The “spontaneous proliferative splenic T cell recall responses” value in test [3] is given as “did not detect”.

On to “GKRNAAGDPNRESLDFL [peptide 8, from islet amyloid polypeptide]”, for which the “immunogenicity in NOD mice” value in test [2] is reported as “did not contain determinants”.

For the molecule “LIKPDRCHHCSVCDKC (homo sapiens) [Peptide 4]”, the “immunogenicity in NOD mice” value in test [2] is reported as “immunogenic”. In addition, the “spontaneous proliferative splenic T cell recall responses” value in test [3] is listed as “did not detect”.

For “NHLRATPVRSGSNPQ (homo sapiens) [Peptide 6]”, the “immunogenicity in NOD mice” value in test [2] is given as “immunogenic”. Also, in test [3], the “spontaneous proliferative splenic T cell recall responses” value was “did not detect”.

Take EEFMKTWRKYDTDHS [peptide 1]: the “immunogenicity in NOD mice” value in test [2] is recorded as “did not contain determinants”.

Regarding “TQRLANFLVRSSNNL (homo sapiens) [Peptide 7]”, the “immunogenicity in NOD mice” value in test [2] was “immunogenic”. In test [4], the “IFN-γ secretion of reactive T cell clone in response to the corresponding antigen” value was “no” and the “IL-4 secretion of reactive T cell clone in response to the corresponding antigen” value is “secreted”. Moreover, in test [3], the “spontaneous proliferative splenic T cell recall responses” value is listed as “did not detect”.

On to “ILKMDHHCPWVNNCV [peptide 5, 15mer from clone 38]”, for which, in test [2], the “immunogenicity in NOD mice” value is reported as “did not contain determinants”.

Regarding “PLQCSALLVREEGLMQSCNQ (homo sapiens) [GADp27]”, the “immunogenicity in NOD mice” value in test [2] is listed as “immunogenic”. For the same molecule, in test [3], the “spontaneous proliferative splenic T cell recall responses” value is listed as “ignored”.

As for LKDLCEKNKQELDIN [peptide 3], the “immunogenicity in NOD mice” value in test [2] is listed as “did not contain determinants”.

B1: GAD: Mouse GAD65, glutamic acid decarboxylase, β cell autoantigen (protein, UniProt P48320 1-585, looked up)
Glutamate decarboxylase 2: MASPGSGFWSFGSEDGSADPENPGTARAWCQVAQKFTGGIGNKLCALLYGDSGKPAEGGGSVTSRAATGKVACTCDQKPCNCPKGDVNYAFLHATDLLPACDGERPTLAFLQDVMNILLQYVVKSFDRSTKVIDFHYPNELLQEYNWELADQPQNLEEILTHCQTTLKYAIKTGHPRYFNQLSTGLDMVGLAADWLTSTANTNMFTYEIAPVFVLLEYVTLKKMREIIGWPGGSGDGIFSPGGAISNMYAMLIARYKMFPEVKEKGMAAVPRLIAFTSEHSHFSLKKGAAALGIGTDSVILIKCDERGKMIPSDLERRILEVKQKGFVPFLVSATAGTTVYGAFDPLLAVADICKKYKIWMHVDAAWGGGLLMSRKHKWKLSGVERANSVTWNPHKMMGVPLQCSALLVREEGLMQSCNQMHASYLFQQDKHYDLSYDTGDKALQCGRHVDVFKLWLMWRAKGTTGFEAHIDKCLELAEYLYTIIKNREGYEMVFDGKPQHTNVCFWFVPPSLRTLEDNEERMSRLSKVAPVIKARMMEYGTTMVSYQPLGDKVNFFRMVISNPAATHQDIDFLIEEIERLGQDL
Take B1: the “IFNγ responses, number of T cells” value in test [5] (100 islet monocytes mixed with 1 million irradiated splenic T cells) was 15; in test [5] (1,000 islet monocytes mixed with 1 million irradiated splenic T cells, 10-week old female NOD mice) it was 123. For the same molecule, the “syngeneic islet graft survival (recurrence of hyperglycemia)” value in test [6] is reported as “greatly extended syngeneic islet graft survival”. Also, the “Th2 and Th1 responses to the injected autoantigen” value in test [7] is “both Th2 and Th1 responses”. In test [8], the “protection from IDDM” value was “highly protective”.
